Values joined by “and” are separate entries in the source; they are usually repeats but may differ in a detail not shown here. Identical values can stand only once. “Also recorded” adds a separate entry of the source.
Columns and labels:
hA3AR = hA3AR (Homo sapiens (Human), UniProt P0DMS8); assay: GTPγS binding at hA3AR; format: biochemical
human A3AR = human A3AR (Homo sapiens (Human), UniProt P0DMS8); assay: Competitive binding assay to the human A3AR ([125I]I-AB-MECA)
Experimental: CHO (Chinese hamster ovary) cells expressing the recombinant human ARs (HEK-293 cells were used for the human A2AAR) were cultured in DMEM and F12 (1:1) supplemented with 10% fetal bovine serum, 100 units/ml penicillin, […] streptomycin and 2 μmol/ml glutamine. Cells were harvested by trypsinization. After homogenization and suspension, cells were centrifuged at 500 g for 10 min, and the pellet was re-suspended in 50 mM Tris.HCl buffer (pH 7.4) containing 10 mM MgCl2. The suspension was homogenized with an electric homogenizer for 10 sec, and was then re-centrifuged at 20,000 g for 20 min at 4° C. The resultant pellets were resuspended in buffer in the presence of 3 Units/mL adenosine deaminase, and the suspension was stored at −80° C. until the binding experiments. The protein concentration was measured using the Bradford assay.
Each tube in the competitive binding assay contained 100 μl membrane suspension (20 μg protein), 50 μl [^125I]-AB-MECA (0.5 nM), and 50 μl of increasing concentrations of the test ligands in Tris.HCl buffer (50 mM, pH 8.0) containing 10 mM MgCl2, 1 mM EDTA. Nonspecific binding was determined using 10 μM of 5′-N-ethylcarboxamidoadenosine in the buffer. The mixtures were incubated at 25° C. for 60 min. Binding reactions were terminated by filtration through Whatman GF/B filters under reduced pressure using a MT-24 cell harvester (Brandell, Gaithersburgh, Md., USA). Filters were washed three times with 9 mL ice-cold buffer. Radioactivity was determined in a Beckman 5500B γ-counter.

Sequence of human A3AR (P0DMS8 whole entry): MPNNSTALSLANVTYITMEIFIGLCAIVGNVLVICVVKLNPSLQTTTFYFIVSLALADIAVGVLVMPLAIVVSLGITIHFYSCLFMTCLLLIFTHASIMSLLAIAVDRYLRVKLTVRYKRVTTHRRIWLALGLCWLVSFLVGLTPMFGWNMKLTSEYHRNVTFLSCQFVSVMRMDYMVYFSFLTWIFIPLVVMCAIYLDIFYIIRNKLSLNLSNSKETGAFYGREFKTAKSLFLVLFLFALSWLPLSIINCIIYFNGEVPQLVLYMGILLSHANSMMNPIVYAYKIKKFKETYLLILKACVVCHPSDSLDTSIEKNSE
Sequence of hA3AR (P0DMS8 whole entry): as above

Clc1ccc(Nc2nc3ccccc3c3[nH]c(C4CCCCC4)nc23)cc1Cl [Compound 45, N-(3,4-Dichloro-phenyl)-2-cyclohexyl-1H-imidazo[4,5-c]quinolin-4-amine]
Enhancement of GTPγS binding (%) at hA3AR at 10 μM (hA3AR; 10 μM Cl-IB-MECA alone = 100%, Table 3): 194 ± 11% and 177%
Relative efficacy (%) at hA3AR at 10 μM (GTPγS binding) in absence of agonist (hA3AR; absence of agonist, 10 μM Cl-IB-MECA alone = 100%): 6%
Enhancement of GTP[…]S binding (%) at hA3AR at 10 μM (hA3AR; compared to maximal effect by 2-Cl-IB-MECA alone (control), Table 4): 194 ± 11%
hA3AR % displ. at 10 μM (human A3AR; 10 μM, [125I]I-AB-MECA, CHO cells, Table 3): 45%
inhibition at 10 µM (human A3AR; 1 h, 10 μM, [125I]I-AB-MECA (0.5 nM), CHO cells, Table 2, read-out: hA3AR % displ. at 10 μM): 45%
affinity to orthosteric versus allosteric binding sites (selective affinity) (human A3AR; orthosteric sites of A1, A2A, A2B, A3 receptors vs allosteric site of A3 adenosine receptor): selective affinity; also recorded: best separation between orthosteric and allosteric recognition

Reference: patent publication US9326978B2, “A3 adenosine receptor allosteric modulators” (The United States of America, Represented by the Secretary, …, priority 2006, dated 2016)
